Data published in the supplement of paper PMC10307832.

What was measured:
Experiment in all cases: relative viability (nuclei count vs DMSO), 5 days (fraction); higher = more cells survive
[1] = compound: C1COCCN1CC2=CC(=O)C(=CO2)OCCCCCSC3=C4C=CC(=CC4=NC=C3)C(F)(F)F [EHT 1864] + Cc1nc(NC(=O)N2CCC[C@H]2C(N)=O)sc1-c1ccnc(C(C)(C)C(F)(F)F)c1 [Alpelisib] (partner 2 µM)
Procedure, shortened: (§1)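 One day after seeding in 1536-well plates, lung cancer cell lines were dosed by pin tool. Dosing was either single-drug or a fixed anchor-drug dose plus five library-drug doses (not always all listed) in √10 steps. After 5 days, nuclei were stained in one fix-and-stain step and counted on 4× images, and relative viability is the nuclei count of treated wells over that of vehicle wells, given as the median of duplicate plates.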

[2] = compound: C1COCCN1CC2=CC(=O)C(=CO2)OCCCCCSC3=C4C=CC(=CC4=NC=C3)C(F)(F)F [EHT 1864] + Cc1nc(Nc2ncc(C(=O)Nc3c(C)cccc3Cl)s2)cc(N2CCN(CCO)CC2)n1 [Dasatinib] (partner 0.075 µM)
Procedure, shortened: as §1

[3] = compound: C1COCCN1CC2=CC(=O)C(=CO2)OCCCCCSC3=C4C=CC(=CC4=NC=C3)C(F)(F)F [EHT 1864] + Cc1cc(Nc2cc(N3CCN(C)CC3)nc(Sc3ccc(NC(=O)C4CC4)cc3)n2)n[nH]1 [Tozasertib] (partner 0.1 µM)
Procedure, shortened: as §1

[4] = compound: C1COCCN1CC2=CC(=O)C(=CO2)OCCCCCSC3=C4C=CC(=CC4=NC=C3)C(F)(F)F [EHT 1864] + CCNC(=O)c1noc(-c2cc(C(C)C)c(O)cc2O)c1-c1ccc(CN2CCOCC2)cc1 [Luminespib] (partner 0.01 µM)
Procedure, shortened: as §1

Row | Cell Line | relative viability ([1]; first compound 0.04 µM) | relative viability ([1]; first compound 0.1265 µM) | relative viability ([1]; first compound 0.4 µM) | relative viability ([1]; first compound 1.265 µM) | relative viability ([1]; first compound 4 µM) | relative viability ([2]; first compound 0.04 µM) | relative viability ([2]; first compound 0.1265 µM) | relative viability ([2]; first compound 0.4 µM) | relative viability ([2]; first compound 1.265 µM) | relative viability ([2]; first compound 4 µM) | relative viability ([3]; first compound 0.04 µM) | relative viability ([3]; first compound 0.1265 µM) | relative viability ([3]; first compound 0.4 µM) | relative viability ([3]; first compound 1.265 µM) | relative viability ([3]; first compound 4 µM) | relative viability ([4]; first compound 0.04 µM) | relative viability ([4]; first compound 0.1265 µM) | relative viability ([4]; first compound 0.4 µM) | relative viability ([4]; first compound 1.265 µM) | relative viability ([4]; first compound 4 µM)
1 | 201T | 1.02 | 1.08 | 0.977 | 0.982 | 1.01 | 0.563 | 0.587 | 0.589 | 0.473 | 0.528 | 0.916 | 0.912 | 0.983 | 0.853 | 0.864 | 0.994 | 1.06 | 1.01 | 0.891 | 0.946
2 | A-427 | 1.15 | 1.08 | 1.04 | 1.11 | 1.13 | 0.643 | 0.655 | 0.613 | 0.705 | 0.623 | 0.198 | 0.232 | 0.208 | 0.189 | 0.217 | 0.876 | 0.952 | 0.899 | 0.942 | 0.906
3 | ABC-1 | 0.665 | 1 | 1.05 | 0.92 | 1.07 | 0.504 | – | 0.631 | 0.488 | 0.439 | 0.15 | 0.164 | 0.185 | 0.189 | 0.195 | 0.816 | – | 0.48 | 0.387 | 0.422
4 | BEN | 0.941 | 0.825 | 0.92 | 0.938 | 1.1 | 0.384 | 0.279 | 0.377 | 0.308 | 0.36 | 0.544 | 0.433 | 0.547 | 0.461 | 0.481 | 0.264 | 0.17 | 0.527 | 0.333 | 0.533
5 | CAL-12T | 1.23 | 1.14 | 1.08 | 1.25 | 1.05 | 0.54 | 0.38 | 0.409 | 0.353 | 0.483 | 0.39 | 0.294 | 0.302 | 0.292 | 0.216 | 0.563 | 0.178 | 0.366 | 0.373 | 0.46
6 | COR-L23 | 0.832 | 0.878 | 0.815 | 0.855 | 0.76 | 0.492 | 0.396 | 0.467 | 0.485 | 0.439 | 0.248 | 0.176 | 0.21 | 0.131 | 0.155 | 0.699 | 0.528 | 0.613 | 0.642 | 0.494
7 | COR-L 105 | 0.906 | 1.06 | 1.03 | 0.969 | 0.841 | 0.415 | 0.314 | 0.34 | 0.334 | 0.396 | 0.343 | 0.36 | 0.367 | 0.369 | 0.693 | 0.748 | 0.751 | 0.808 | 0.628 | 0.686
8 | Calu-6 | 0.983 | 0.932 | 0.948 | 1.01 | 0.904 | – | – | – | – | – | – | – | – | – | – | – | – | – | – | –
9 | ChaGo-K-1 | – | – | – | – | – | 0.587 | 0.551 | 0.619 | 0.602 | 0.616 | 0.215 | 0.221 | 0.228 | 0.207 | 0.204 | 0.487 | 0.604 | 0.703 | 0.547 | 0.559
10 | EKVX | 0.894 | 0.836 | 0.875 | 0.871 | 0.795 | 0.631 | 0.436 | 0.536 | 0.51 | 0.58 | 0.4 | 0.371 | 0.369 | 0.351 | 0.349 | 0.9 | 0.871 | 0.834 | 0.836 | 0.885
11 | EMC-BAC-2 | 0.694 | 0.682 | 0.718 | 0.705 | 0.768 | 0.359 | 0.342 | 0.338 | 0.276 | 0.325 | 0.304 | 0.253 | 0.314 | 0.236 | 0.26 | 1.12 | 1.09 | 1.16 | 1.12 | 1.05
12 | EPLC-272H | 1.08 | 0.933 | 0.977 | 1.07 | 0.999 | 0.359 | 0.327 | 0.395 | 0.452 | 0.275 | 0.299 | 0.352 | 0.143 | 0.314 | 0.284 | 0.347 | 0.365 | 0.266 | 0.521 | 0.606
13 | H3255 | 0.652 | 0.516 | 0.675 | 0.718 | 0.711 | 0.437 | 0.391 | 0.346 | 0.344 | 0.343 | 0.576 | 0.603 | 0.633 | 0.677 | 0.527 | 0.895 | 0.799 | 1.01 | 0.917 | 1.07
14 | HARA | 0.762 | 0.758 | 0.843 | 0.814 | 0.857 | 0.236 | 0.246 | 0.207 | 0.19 | 0.255 | 0.118 | 0.127 | 0.132 | 0.098 | 0.117 | 0.738 | 0.68 | 0.75 | 0.644 | 0.719
15 | HCC-15 | 0.902 | 0.797 | 0.903 | 0.823 | 0.842 | 0.56 | – | 0.623 | 0.618 | 0.543 | 0.377 | – | 0.398 | 0.319 | 0.247 | 0.451 | – | 0.24 | 0.369 | 0.251
16 | HCC-44 | 0.801 | 0.703 | 0.751 | 0.695 | 0.857 | – | – | – | – | – | 0.919 | 0.827 | 0.878 | 0.771 | 0.926 | 1.04 | 0.906 | 0.924 | 1.02 | 1.33
17 | HCC-78 | 0.29 | 0.31 | 0.328 | 0.367 | 0.491 | 0.365 | 0.367 | 0.357 | 0.338 | 0.337 | 0.432 | 0.236 | 0.278 | 0.335 | 0.563 | – | – | – | – | –
18 | HCC-366 | 0.426 | – | 0.492 | 0.401 | 0.285 | 0.609 | 0.602 | 0.638 | 0.596 | 0.771 | 0.13 | 0.168 | 0.0914 | 0.0579 | 0.0542 | – | – | – | – | –
